Measurements taken from article PMC3261753 (Biochemistry, 2011).

Experiments:
[1] = system: wild-type B. anthracis topoisomerase IV; assay type: biochemical, Bacillus anthracis
[2] = system: S. pneumoniae gyrase resistance mutations; settings: cited from earlier work
[3] = system: S. pneumoniae topoisomerase IV resistance mutations; settings: cited from earlier work

| SMILES | CC3 (concentration of drug required to triple the percent DNA cleavage observed in the absence of drug) [1] [µM] | Max. DNA cleavage [1] [%] | Relative potency/efficacy of DNA cleavage enhancement among quinolones [1] | also measured |
| --- | --- | --- | --- | --- |
| Cc1c(N2CC[C@@H](CN)C2)c(F)cc2c(=O)n(N)c(=O)n(C3CC3)c12 [8-methyl-quinazoline-2,4-dione, 3-Amino-7-[(3S)-3-(aminomethyl)-1-pyrrolidinyl]-1-cyclopropyl-6-fluoro-8-methyl-2,4(1H,3H) -quinazolinedione] | 0.20 | 29.0 | – | Mg2+ concentration for half-maximal DNA cleavage [1]: ~ 0.35 mM; Mg2+ concentration for maximal DNA cleavage [1]: ~ 1 mM; Potency relative to ciprofloxacin (as reflected by the CC3 value) [1]: ~ 2.5 times |
| O=C(O)c1cn(C2CC2)c2cc(N3CCNCC3)c(F)cc2c1=O [Ciprofloxacin] | – | – | – | Drop in potency with mutant enzyme [2]: ~ 8 fold; Drop in potency with mutant enzyme [3]: > 16 fold |
| C[C@H]1COc2c(N3CCN(C)CC3)c(F)cc3c(=O)c(C(=O)O)cn1c23 [Levofloxacin, levofloxacin] | 1.45 | 30.4 | most efficacious | Drug concentration that generated maximal DNA cleavage [1]: 20 µM |
| C[C@@H]1CN(c2c(F)c(N)c3c(=O)c(C(=O)O)cn(C4CC4)c3c2F)C[C@H](C)N1 [sparfloxacin] | – | – | least potent and efficacious quinolone examined | – |
